Laboratory results from PubChem BioAssay AID212 (DTP/NCI, 2004).
Values joined by “and” are separate entries in the source; they are usually repeats but may differ in a detail not shown here. Equal entries are not always repeated. Records with an inconclusive call do not appear. *1 amine or outer side, *2 acyl side, *3 side chain or, on linkers, in order; H or OH if unused. Where a SMILES comes first, the peptide text is derived from it. Bridges are numbered along the chain shown (N, C = ends). Roman numbers before positions name the chains, in order. [ ]: non-standard residue; d: D form. Actinocin(1to9) = Cc1c2oc3c(C)ccc(C(=O)[*:2])c3nc-2c(C(=O)[*:1])c(N)c1=O; NMeV = CN[CH](C(=O)O)C(C)C; Aze = O=C(O)[CH]1CCN1; Sar = CNCC(=O)O

Tested on: BDF1 mice, colon carcinoma 38 sc, T/C %
Experiment: NCI In Vivo Anticancer Drug Screen. Data for tumor model Colon Carcinoma 38 (subcutaneous) in B6D2F1 (BDF1) mice
Conditions: endpoint: median tumor weight (est.), schedule: Q07DX002 (ip), higher = larger tumour
In short: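 Transplantable tumor in mice; compound-treated vs vehicle-dosed controls. Measured survival or tumor size; value = T ÷ C.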

[1] = dose: 12.5 mg/kg/injection, vehicle: Klucel (hydroxypropylcellulose) (HPC)
[2] = dose: 25.0 mg/kg/injection, vehicle: Klucel (hydroxypropylcellulose) (HPC)
[3] = dose: 50.0 mg/kg/injection, vehicle: Klucel (hydroxypropylcellulose) (HPC)
[4] = dose: 100.0 mg/kg/injection, vehicle: Klucel (hydroxypropylcellulose) (HPC)
[5] = dose: 200.0 mg/kg/injection, vehicle: Klucel (hydroxypropylcellulose) (HPC)
[6] = dose: 400.0 mg/kg/injection, vehicle: Klucel (hydroxypropylcellulose) (HPC)
[7] = dose: 25.0 mg/kg/injection, vehicle: saline
[8] = dose: 50.0 mg/kg/injection, vehicle: saline
[9] = dose: 100.0 mg/kg/injection, vehicle: saline
[10] = dose: 200.0 mg/kg/injection, vehicle: saline
[11] = dose: 400.0 mg/kg/injection, vehicle: saline
[12] = dose: 800.0 mg/kg/injection, vehicle: saline
[13] = dose: 8.0 mg/kg/injection, vehicle: Klucel (hydroxypropylcellulose) (HPC)
[14] = dose: 32.0 mg/kg/injection, vehicle: Klucel (hydroxypropylcellulose) (HPC)
[15] = dose: 64.0 mg/kg/injection, vehicle: Klucel (hydroxypropylcellulose) (HPC)

**Q.** Which results are given for `O=c1[nH]cnc2n[nH]nc12`?
**A.** T/C [1]: 122 % of control; T/C [2]: 110 % of control; T/C [3]: 100 % of control; T/C [4]: 87 % of control; T/C [5]: 77 % of control; T/C [6]: 88 % of control

**Q.** With `NCCc1cc(O)c(O)c(O)c1` as the compound, how does the T/C [7] read?
**A.** 71 % of control

**Q.** And the T/C [8]?
**A.** 62 % of control

**Q.** What about the T/C [9] of the same compound?
**A.** 82 % of control

**Q.** What about the T/C [10] of the same compound?
**A.** 80 % of control

**Q.** And the T/C [11]?
**A.** 110 % of control

**Q.** What about the T/C [12] of the same compound?
**A.** 51 % of control

**Q.** How did the T/C [2] turn out when `c1cc(OCC2CO2)ccc1OCC1CO1` (centres undefined) was run?
**A.** 76 % of control

**Q.** And the T/C [3]?
**A.** 96 % of control

**Q.** What about the T/C (dose: 50.0 mg/kg/injection, vehicle: saline with Tween-80) of the same compound?
**A.** 113 % of control

**Q.** What about the T/C [4] of the same compound?
**A.** 67 % of control

**Q.** And the T/C (dose: 100.0 mg/kg/injection, vehicle: saline with Tween-80)?
**A.** 94 % of control

**Q.** What about the T/C [5] of the same compound?
**A.** 63 % of control

**Q.** And the T/C (dose: 200.0 mg/kg/injection, vehicle: saline with Tween-80)?
**A.** 82 % of control

**Q.** And the T/C [6]?
**A.** 77 % of control

**Q.** And the T/C (dose: 400.0 mg/kg/injection, vehicle: saline with Tween-80)?
**A.** 102 % of control

**Q.** And the T/C (dose: 800.0 mg/kg/injection, vehicle: saline with Tween-80)?
**A.** 77 % of control

**Q.** For `Cc1c2oc3c(C)ccc(C(=O)NC4C(=O)NC(C(C)C)C(=O)N5CCCC5C(=O)N(C)CC(=O)N(C)C(C(C)C)C(=O)OC4C)c3nc-2c(C(=O)NC2C(=O)NC(C(C)C)C(=O)N3CCC3C(=O)N(C)CC(=O)N(C)C(C(C)C)C(=O)OC2C)c(N)c1=O` (centres undefined) (I: TV[Aze][Sar][NMeV] / II: TVP[Sar][NMeV]; ester I:1-I:C, II:1-II:C; linker I:N-II:N via Actinocin(1to9); configuration not given here), which T/C (dose: 25.0 micrograms/kg/injection, vehicle: saline) is on record?
**A.** 165 % of control

**Q.** And the T/C (dose: 37.5 micrograms/kg/injection, vehicle: saline + alcohol)?
**A.** 124 % of control

**Q.** And the T/C (dose: 50.0 micrograms/kg/injection, vehicle: saline)?
**A.** 80 % of control

**Q.** And the T/C (dose: 200.0 micrograms/kg/injection, vehicle: saline)?
**A.** 93 % of control

**Q.** And the T/C (dose: 400.0 micrograms/kg/injection, vehicle: saline)?
**A.** 51 % of control

**Q.** What about the T/C (dose: 600.0 micrograms/kg/injection, vehicle: saline + alcohol) of the same compound?
**A.** 48 % of control and 50 % of control and 73 % of control

**Q.** And the T/C (dose: 800.0 micrograms/kg/injection, vehicle: saline)?
**A.** 21 % of control

**Q.** `Cc1ccc(S(=O)(=O)OCOS(=O)(=O)c2ccc(C)cc2)cc1` was tested. Which T/C [4] did it give?
**A.** 61 % of control

**Q.** What about the T/C [5] of the same compound?
**A.** 104 % of control

**Q.** What about the T/C [6] of the same compound?
**A.** 80 % of control and 93 % of control

**Q.** What about the T/C (dose: 1600.0 mg/kg/injection, vehicle: Klucel (hydroxypropylcellulose) (HPC)) of the same compound?
**A.** 19 % of control and 27 % of control

**Q.** For `Cc1nc(N)nc(N)c1-c1ccc(Cl)c(Cl)c1`, which T/C (dose: 1.25 mg/kg/injection, vehicle: saline) is on record?
**A.** 106 % of control

**Q.** And the T/C (dose: 2.5 mg/kg/injection, vehicle: saline)?
**A.** 81 % of control and 102 % of control

**Q.** What about the T/C (dose: 5.0 mg/kg/injection, vehicle: saline) of the same compound?
**A.** 50 % of control and 72 % of control

**Q.** What about the T/C (dose: 10.0 mg/kg/injection, vehicle: saline) of the same compound?
**A.** 68 % of control and 69 % of control and 83 % of control

**Q.** And the T/C (dose: 10.0 mg/kg/injection, vehicle: suspension in saline)?
**A.** 67 % of control

**Q.** And the T/C (dose: 20.0 mg/kg/injection, vehicle: suspension in saline)?
**A.** 46 % of control

**Q.** What about the T/C (dose: 80.0 mg/kg/injection, vehicle: saline) of the same compound?
**A.** 55 % of control

**Q.** For `CC(C)[C@]12O[C@H]1[C@@H]1O[C@]13[C@]1(O[C@H]1C[C@H]1C4=C(C(=O)OC4)[C@@H](O)C[C@@]13C)[C@@H]2O`, which T/C (dose: 25.0 micrograms/kg/injection, vehicle: saline + alcohol) is on record?
**A.** 113 % of control

**Q.** And the T/C (dose: 100.0 micrograms/kg/injection, vehicle: saline + alcohol)?
**A.** 113 % of control

**Q.** What about the T/C (dose: 200.0 micrograms/kg/injection, vehicle: saline + alcohol) of the same compound?
**A.** 109 % of control

**Q.** And the T/C (dose: 400.0 micrograms/kg/injection, vehicle: saline + alcohol)?
**A.** 63 % of control

**Q.** With `O=C1C(NCCO)=C(N2CC2)C(=O)C(NCCO)=C1N1CC1` as the compound, how does the T/C (dose: 0.12 mg/kg/injection, vehicle: saline) read?
**A.** 83 % of control and 91 % of control

**Q.** What about the T/C (dose: 0.25 mg/kg/injection, vehicle: saline) of the same compound?
**A.** 92 % of control

**Q.** `C1CC[N-]CC1.C1CC[N-]CC1.C1CC[N-]CC1.[Cl][Rh]([Cl])[Cl]` was tested. Which T/C [7] did it give?
**A.** 105 % of control

**Q.** What about the T/C [9] of the same compound?
**A.** 120 % of control and 124 % of control

**Q.** And the T/C [10]?
**A.** 92 % of control

**Q.** Which results are given for `COC1C=CC23c4cc5c(cc4C(O)OC2CN(C)C3C1)OCO5` (centres undefined)?
**A.** T/C (dose: 18.75 mg/kg/injection, vehicle: suspension in saline): 91 % of control; T/C (dose: 37.5 mg/kg/injection, vehicle: suspension in saline): 82 % of control; T/C (dose: 75.0 mg/kg/injection, vehicle: suspension in saline): 105 % of control

**Q.** Which T/C [7] does the source give for `CN(C)C=O` here?
**A.** 45 % of control

**Q.** And the T/C [8]?
**A.** 83 % of control

**Q.** What about the T/C [10] of the same compound?
**A.** 89 % of control

**Q.** What about the T/C [11] of the same compound?
**A.** 89 % of control and 92 % of control

**Q.** What about the T/C [12] of the same compound?
**A.** 115 % of control

**Q.** `CC1OC1C(=O)C1(O)C(C)C(O)C23OC2(C(O)c2c(O)cccc2C3=O)C1O` (centres undefined) was tested. Which T/C (dose: 2.0 mg/kg/injection, vehicle: Klucel (hydroxypropylcellulose) (HPC)) did it give?
**A.** 95 % of control and 101 % of control

**Q.** What about the T/C (dose: 4.0 mg/kg/injection, vehicle: Klucel (hydroxypropylcellulose) (HPC)) of the same compound?
**A.** 77 % of control and 91 % of control

**Q.** What about the T/C [13] of the same compound?
**A.** 95 % of control and 102 % of control

**Q.** What about the T/C [14] of the same compound?
**A.** 98 % of control

**Q.** What about the T/C [15] of the same compound?
**A.** 124 % of control

**Q.** `C/C=C/c1cc2n(c1)C(=O)c1cc(OC3OC(C)C(NC)C(C)(O)C3O)c(C)c(O)c1NC2O` (centres undefined) was tested. Which T/C (dose: 32.0 micrograms/kg/injection, vehicle: saline) did it give?
**A.** 42 % of control

**Q.** With `O=c1ccc2ccccc2o1` as the compound, how does the T/C [3] read?
**A.** 115 % of control

**Q.** And the T/C [4]?
**A.** 118 % of control

**Q.** What about the T/C [5] of the same compound?
**A.** 118 % of control

**Q.** How did the T/C (dose: 1.56 mg/kg/injection, vehicle: Klucel (hydroxypropylcellulose) (HPC)) turn out when `[I][Hg][CH2]C1OCCOC1[CH2][Hg][I]` (centres undefined) was run?
**A.** 93 % of control

**Q.** What about the T/C (dose: 3.12 mg/kg/injection, vehicle: Klucel (hydroxypropylcellulose) (HPC)) of the same compound?
**A.** 101 % of control

**Q.** What about the T/C (dose: 6.25 mg/kg/injection, vehicle: Klucel (hydroxypropylcellulose) (HPC)) of the same compound?
**A.** 92 % of control

**Q.** What about the T/C [1] of the same compound?
**A.** 99 % of control and 106 % of control

**Q.** What about the T/C [2] of the same compound?
**A.** 83 % of control and 91 % of control

**Q.** `C=C1C(=O)OC2CC(C)C3C4OC4C(O)C3(C)C(O)C12` (centres undefined) was tested. Which T/C (dose: 6.25 mg/kg/injection, vehicle: saline) did it give?
**A.** 115 % of control

**Q.** And the T/C (dose: 12.5 mg/kg/injection, vehicle: saline)?
**A.** 118 % of control

**Q.** And the T/C [7]?
**A.** 116 % of control

**Q.** And the T/C [8]?
**A.** 80 % of control

**Q.** And the T/C [9]?
**A.** 155 % of control

**Q.** What does the source list for `C=C1C(=O)C23C(O)CC4C5(C)CCCC4(C(O)OC5)C2C(OC(C)=O)CC1C3O` (centres undefined)?
**A.** T/C [13]: 72 % of control; T/C (dose: 8.0 mg/kg/injection, vehicle: saline): 124 % of control; T/C (dose: 16.0 mg/kg/injection, vehicle: Klucel (hydroxypropylcellulose) (HPC)): 72 % of control; T/C (dose: 16.0 mg/kg/injection, vehicle: saline): 106 % of control; T/C [14]: 106 % of control; T/C (dose: 32.0 mg/kg/injection, vehicle: saline): 117 % of control; T/C [15]: 112 % of control; T/C (dose: 64.0 mg/kg/injection, vehicle: saline): 101 % of control; T/C (dose: 128.0 mg/kg/injection, vehicle: Klucel (hydroxypropylcellulose) (HPC)): 79 % of control

**Q.** With `C(CSC1=NCCN1)CSC1=NCCN1` as the compound, how does the T/C [7] read?
**A.** 112 % of control

**Q.** What about the T/C [8] of the same compound?
**A.** 96 % of control

**Q.** And the T/C [10]?
**A.** 120 % of control

**Q.** Which results are given for `CC(=O)NC(CCc1ccc(Cl)c(Cl)c1)c1cccc(O)c(=O)c1` (centres undefined)?
**A.** T/C [2]: 161 % of control; T/C [4]: 109 % of control; T/C [5]: 122 % of control

**Q.** How did the T/C [1] turn out when `CCCCc1ccc(-n2c(C)c(COC(=O)NC)c(COC(=O)NC)c2C)cc1` was run?
**A.** 88 % of control

**Q.** What about the T/C [2] of the same compound?
**A.** 66 % of control

**Q.** And the T/C [5]?
**A.** 60 % of control
